# From ChEMBL document CHEMBL4043145, “Pyridine-pyrimidine amides that prevent HGF-induced epithelial scattering by two distinct mechanisms” (Bioorg Med Chem Lett, 2017)
# How the values were obtained:
# PC-3 [1] = experiment: Induction of apoptosis in human p53-null PC3 cells assessed as nuclear debris at 100 nM by 7-AAD/Annexin staining-based assay (reference value: 0.1 to 0.5%); format: functional
# T47D [2] = experiment: Induction of apoptosis in human T47D cells assessed as early apoptotic cells at 300 nM by 7-AAD/Annexin staining-based assay (reference value: 1.6 to 4.3%); format: functional
# MFE-280 [3] = experiment: Induction of apoptosis in human MFE280 cells assessed as nuclear debris at 300 nM by 7-AAD/Annexin staining-based assay (reference value: 0.5 to 2.3%); format: functional
# T47D [4] = experiment: Induction of apoptosis in human T47D cells assessed as viable cells at 100 nM by 7-AAD/Annexin staining-based assay (reference value: 74.5 to 94.5%); format: functional; conditions: read-out: Activity
# T47D [5] = experiment: Induction of apoptosis in human T47D cells assessed as late apoptotic cells at 1000 nM by 7-AAD/Annexin staining-based assay (reference value: 3 to 13.4%); format: functional
# MFE-296 [6] = experiment: Induction of apoptosis in human MFE296 cells assessed as late apoptotic cells at 1000 nM by 7-AAD/Annexin staining-based assay (reference value: 3.6 to 6.6%); format: functional
# MCF7 [7] = experiment: Induction of apoptosis in human MCF7 cells assessed as early apoptotic cells at 100 nM by 7-AAD/Annexin staining-based assay (reference value: 2 to 2.7%); format: functional
# MCF7 [8] = experiment: Induction of apoptosis in human MCF7 cells assessed as nuclear debris at 1000 nM by 7-AAD/Annexin staining-based assay (reference value: 0.2 to 3%); format: functional
# T47D [9] = experiment: Induction of apoptosis in human T47D cells assessed as late apoptotic cells at 100 nM by 7-AAD/Annexin staining-based assay (reference value: 3 to 13.4%); format: functional
# MCF7 [10] = experiment: Induction of apoptosis in human MCF7 cells assessed as late apoptotic cells at 100 nM by 7-AAD/Annexin staining-based assay (reference value: 1 to 2.1%); format: functional
# MFE-296 [11] = experiment: Induction of apoptosis in human MFE296 cells assessed as nuclear debris at 1000 nM by 7-AAD/Annexin staining-based assay (reference value: 0.4 to 0.8%); format: functional
# T47D [12] = experiment: Induction of apoptosis in human T47D cells assessed as viable cells at 300 nM by 7-AAD/Annexin staining-based assay (reference value: 74.5 to 94.5%); format: functional; conditions: read-out: Activity
# T47D [13] = experiment: Induction of apoptosis in human T47D cells assessed as late apoptotic cells at 300 nM by 7-AAD/Annexin staining-based assay (reference value: 3 to 13.4%); format: functional
# MCF7 [14] = experiment: Induction of apoptosis in human MCF7 cells assessed as viable cells at 300 nM by 7-AAD/Annexin staining-based assay (reference value: 92.6 to 96.8%); format: functional; conditions: read-out: Activity
# A2780 [15] = experiment: Induction of apoptosis in human A2780 cells assessed as late apoptotic cells at 100 nM by 7-AAD/Annexin staining-based assay (reference value: 1.2 to 2.2%); format: functional
# T47D [16] = experiment: Induction of apoptosis in human T47D cells assessed as early apoptotic cells at 100 nM by 7-AAD/Annexin staining-based assay (reference value: 1.6 to 4.3%); format: functional
# PC-3 [17] = experiment: Induction of apoptosis in human p53-null PC3 cells assessed as early apoptotic cells at 1000 nM by 7-AAD/Annexin staining-based assay (reference value: 0.6 to 1.4%); format: functional
# PC-3 [18] = experiment: Induction of apoptosis in human p53-null PC3 cells assessed as nuclear debris at 300 nM by 7-AAD/Annexin staining-based assay (reference value: 0.1 to 0.5%); format: functional
# MCF7 [19] = experiment: Induction of apoptosis in human MCF7 cells assessed as late apoptotic cells at 300 nM by 7-AAD/Annexin staining-based assay (reference value: 1 to 2.1%); format: functional
# MFE-280 [20] = experiment: Induction of apoptosis in human MFE280 cells assessed as viable cells at 100 nM by 7-AAD/Annexin staining-based assay (reference value: 84.9 to 87.7%); format: functional; conditions: read-out: Activity
# PC-3 [21] = experiment: Induction of apoptosis in human p53-null PC3 cells assessed as viable cells at 1000 nM by 7-AAD/Annexin staining-based assay (reference value: 96.5 to 98.6%); format: functional; conditions: read-out: Activity
# A2780 [22] = experiment: Induction of apoptosis in human A2780 cells assessed as late apoptotic cells at 300 nM by 7-AAD/Annexin staining-based assay (reference value: 1.2 to 2.2%); format: functional
# PC-3 [23] = experiment: Induction of apoptosis in human p53-null PC3 cells assessed as early apoptotic cells at 100 nM by 7-AAD/Annexin staining-based assay (reference value: 0.6 to 1.4%); format: functional
# A2780 [24] = experiment: Induction of apoptosis in human A2780 cells assessed as viable cells at 100 nM by 7-AAD/Annexin staining-based assay (reference value: 95 to 96.7%); format: functional; conditions: read-out: Activity
# A2780 [25] = experiment: Induction of apoptosis in human A2780 cells assessed as nuclear debris at 300 nM by 7-AAD/Annexin staining-based assay (reference value: 0.3 to 1.1%); format: functional
# MFE-296 [26] = experiment: Induction of apoptosis in human MFE296 cells assessed as late apoptotic cells at 300 nM by 7-AAD/Annexin staining-based assay (reference value: 3.6 to 6.6%); format: functional
# PC-3 [27] = experiment: Induction of apoptosis in human p53-null PC3 cells assessed as late apoptotic cells at 1000 nM by 7-AAD/Annexin staining-based assay (reference value: 0.4 to 1.6%); format: functional
# MFE-296 [28] = experiment: Induction of apoptosis in human MFE296 cells assessed as nuclear debris at 100 nM by 7-AAD/Annexin staining-based assay (reference value: 0.4 to 0.8%); format: functional
# MFE-296 [29] = experiment: Induction of apoptosis in human MFE296 cells assessed as viable cells at 1000 nM by 7-AAD/Annexin staining-based assay (reference value: 90.9 to 94.4%); format: functional; conditions: read-out: Activity
# A2780 [30] = experiment: Cell cycle arrest in human A2780 cells assessed as accumulation at G2/M phase at 1000 nM (reference value: 19.42 to 20.43%); format: functional
# [31] = Inhibition of bovine brain tubulin polymerization; set-up: species or system Bos taurus
# MFE-280 [32] = experiment: Induction of apoptosis in human MFE280 cells assessed as early apoptotic cells at 300 nM by 7-AAD/Annexin staining-based assay (reference value: 5.1 to 6.2%); format: functional
# A2780 [33] = experiment: Cell cycle arrest in human A2780 cells assessed as accumulation at G1 phase at 1000 nM (reference value: 55.26 to 55.66%); format: functional
# A2780 [34] = experiment: Cell cycle arrest in human A2780 cells assessed as accumulation at S phase at 300 nM (reference value: 21.16 to 22.81%); format: functional
# A2780 [35] = experiment: Antiproliferative activity against human A2780 cells; format: functional, cell-based
# MFE-296 [36] = experiment: Cell cycle arrest in human MFE296 cells assessed as accumulation at G2/M phase at 100 nM (reference value: 15.71 to 17.04%); format: functional
# MCF7 [37] = experiment: Cell cycle arrest in human MCF7 cells assessed as accumulation at G2/M phase at 300 nM (reference value: 20.06 to 22.33%); format: functional
Structure (SMILES),Activity (PC-3 [1]),Activity (T47D [2]),Activity (MFE-280 [3]),viability at 0.1 µM (T47D [4]),Activity (T47D [5]),Activity (MFE-296 [6]),Activity (MCF7 [7]),Activity (MCF7 [8]),Activity (T47D [9]),Activity (MCF7 [10]),Activity (MFE-296 [11]),viability at 0.3 µM (T47D [12]),Activity (T47D [13]),viability at 0.3 µM (MCF7 [14]),Activity (A2780 [15]),Activity (T47D [16]),Activity (PC-3 [17]),Activity (PC-3 [18]),Activity (MCF7 [19]),viability at 0.1 µM (MFE-280 [20]),further results
CN[C@@H]1C[C@H]2O[C@@](C)([C@@H]1OC)n1c3ccccc3c3c4c(c5c6ccccc6n2c5c31)C(=O)NC4 [STAUROSPORINE],0.1%,5.5%,0.9%,95%,4.8%,60.3%,3.4%,9.6%,2.4%,3.1%,15.1%,90.6%,3.5%,83.6%,3.7%,2.5%,1.3%,0.1%,7.9%,51.1%,viability at 1 µM (PC-3 [21]): 97.3%; Activity (A2780 [22]): 8.5%; Activity (PC-3 [23]): 1.2%; viability at 0.1 µM (A2780 [24]): 90.5%; Activity (A2780 [25]): 1%; Activity (MFE-296 [26]): 24.4%; Activity (PC-3 [27]): 1.2%; Activity (MFE-296 [28]): 2.4%; viability at 1 µM (MFE-296 [29]): 20.2%
O=C(Nc1ccc(-c2cccc(Cl)c2)cn1)c1cncnc1,0.1%,9.5%,0.7%,92.4%,4.5%,9.1%,3.3%,0.3%,2.3%,1.9%,2.9%,86.5%,3.8%,92.4%,3.2%,5.1%,1.3%,0.2%,3.1%,86.2%,Activity (A2780 [30]): 77.58%; IC50 [31]: 1450 nM; Activity (MFE-280 [32]): 5.4%; Activity (A2780 [33]): 13.03%; Activity (A2780 [34]): 22.35%; viability at 1 µM (PC-3 [21]): 97%; Activity (A2780 [22]): 3.5%; EC50 (A2780 [35]): 55 nM; Activity (MFE-296 [36]): 21.13%; Activity (PC-3 [23]): 0.6%; viability at 0.1 µM (A2780 [24]): 92.7%; Activity (A2780 [25]): 0.9%; Activity (MFE-296 [26]): 8.2%; Activity (MCF7 [37]): 32.59%; Activity (PC-3 [27]): 1.2%; Activity (MFE-296 [28]): 1.3%; viability at 1 µM (MFE-296 [29]): 84.3%
